Measured values reported in US20240100020A1, “MEDICINE FOR RELIEVING OR E[…] […] AND PREPARATION METHOD THEREFOR” (Shenzhen ScienCare Pharmaceutical Co., Ltd., priority 2020, published 2024).

Tested on: Rats
Test: Addiction of tramadol and clonidine tablets and compound tablets (withdrawal after 30 days of administration)
Details: for Number of jumps and body weight loss compared with the blank control group (in words): after 30 consecutive days of administration; for Body weight loss / Number of jumps: within one week after withdrawal
Protocol: Rats weighing approximately 150 g, half male and half female, were taken and randomly divided into 10 groups, that is, a blank control group, a morphine group, a tramadol group, a clonidine group, and compound tablet groups 1 to 6 (the rats in the compound tablet group 1 were administered with the compound tablets of Example 1, the rats in the compound tablet group 2 were administered with the compound tablets of Example 2, the rats in the compound tablet group 3 were administered with the compound tablets of Example 3, the rats in the compound tablet group 4 were administered with the compound tablets of Example 6, the rats in the compound tablet group 5 were administered with the compound tablets of Example 7, and the rats in the compound tablet group 6 were administered with the compound tablets of Example 10).
The rats were administered 3 times a day for 30 days. Administration methods were as follows: (1) the blank control group: PO (oral administration); and 0 mg/kg/time; (2) the morphine group: ip (intraperitoneal injection); and 5 mg/kg/time in week 1, 10 mg/kg/time in week 2, 20 mg/kg/time in week 3, and 30 mg/kg/time from day 22 to day 30; (3) the tramadol group: PO; and 25 mg/kg/time in week 1, 50 mg/kg/time in week 2, 100 mg/kg/time in week 3, and 200 mg/kg/time from day 22 to day 30; (4) the clonidine group: PO; and 0.075 mg/kg/time in week 1, 0.15 mg/kg/time in week 2, 0.3 mg/kg/time in week 3, and 0.6 mg/kg/time from day 22 to day 30; (5) the compound tablet groups: PO; and 25 mg/kg/time in week 1, 50 mg/kg/time in week 2, 100 mg/kg/time in week 3, and 200 mg/kg/time from day 22 to day 30. Withdrawal symptoms and body weight changes within one week after withdrawal of the rats in each group were observed.

[1] = ip 3 times a day for 30 days, 5/10/20/30 mg/kg/time rising by week
[2] = PO 3 times a day for 30 days, 25/50/100/200 mg/kg/time rising by week

CN1CC[C@]23c4c5ccc(O)c4O[C@H]2[C@@H](O)C=C[C@H]3[C@H]1C5 [Morphine group, morphine]
Number of jumps and body weight loss compared with the blank control group (in words): extremely significant differences | Body weight loss [1]: 10.1 ± 2.1 g | Number of jumps [1]: 20.1 ± 2.1

COc1cccc(C2(O)CCCCC2CN(C)C)c1 (stereo not drawn) [Tramadol group, tramadol]
Body weight loss [2]: 9.6 ± 2.3 g | Number of jumps [2]: 17.3 ± 1.9 | Number of jumps and body weight loss compared with the blank control group (in words): extremely significant differences
